Laboratory results as given in patent US6479487B1, “6, 9-disubstituted 2-[trans-(4-aminocyclohexyl)amino] purines” (Aventis Pharmaceuticals Inc., priority 1998, dated 2002).
Values joined by “and” are separate entries in the source; they are usually repeats but may differ in a detail not shown here. Equal values may be shown once. Where a name gives a salt, the structure may show the parent alone. Read-outs that look alike come from different tables or passages of the source.

How the values were obtained:
cdk2/cyclin E = target: T1, cdk2/cyclin E (Homo sapiens, UniProt P24941); assay: Cyclin-Dependent Kinase 2 Assay (cdk2/cyclin E, GST-Rb substrate); format: biochemical; details: recombinant cdk2/cyclin E, 10 μM ATP, 30 min at 30° C., several values in a cell = separate determinations, read-out: CDK-2 Inhibition IC50
T1 construct: made in house; host or cells: insect cells (baculovirus co-infection)
Method: Substrate: GST-Rb as described above for cdk4/cyclin D1
Assay conditions for cdk2/cyclin E were identical to those for cdk4/cyclin D1 including the substrate. The concentration of recombinant cdk2/cyclin E in the assay was 0.1 μg per 100 μl assay. Incubation was for 30 min at 30° C.

cdk4/cyclin D1 = target: T2, cdk4/cyclin D1 (Homo sapiens, UniProt P11802); assay: Cyclin-dependent Kinase 4 Assay (cdk4/cyclin D1, GST-Rb substrate); format: biochemical; details: cdk4/cyclin D1 insect cell lysate, 10 μM ATP, 30 min at 37° C., several values = separate determinations, read-out: CDK4 Inhibition IC50
T2 construct: made in house; host or cells: Sf9 insect cells (Bac-to-Bac baculovirus, pFastBac)
Method: The IC50 values for cdk4 inhibition were by the following method:
The transformed bacteria were grown overnight to saturation, then diluted in YT broth and incubated at 37° C. for 2 h. The protein was induced by incubation with 0.1 mM isopropylthioglycoside for 3 h. Following sedimentation by centrifugation, the cells were lysed by sonication in STE buffer ([…] NaCl, 10 mM Tris, pH 8.0, 1 mM EDTA) containing 10% sarkosyl. Particulate matter was removed by centrifugation and the lysate was incubated with glutathione-Sepharose at 4° C. The beads were washed with kinase buffer and then quantitation of Coomassie blue-stained proteins separated by SDS-PAGE was performed using a protein standard of known concentration.
The cDNA for human cyclin D1 was cloned by RT PCR using […] from MCF-7 cells. […] Bacmid DNA was used to transfect Sf9 insect cells to produce recombinant virus. Following plaque purification of the virus, the viral preparations were amplified until high titer stocks were acheived.
Lysates were prepared by lysis of Sf9 cells coinfected with cdk4 and cyclin D1 in 50 mM HEPES, pH 7.5, 10 mM MgCl2, 1 mM DTT, 0.1 mM phenylmethylsulfonyl fluoride, 5 μg/ml aprotinin, and 5 μg/ml leupeptin using a PARR bomb under 500 p.s.i nitrogen pressure for 5 min at 4° C. Insoluble material was sedimented at 10,000×g for 20 min at 4° C. Glycerol was added to the supernatant to 10% and stored at −80° C. in aliquots.
Pre-wet Millipore Multiscreen 96-well filter plates (0.65 μm Durapore filters) with 200 μl kinase buffer (50 mM HEPES, pH 7.5, 10 mM MgCl2, 1 mM EGTA). GST-Rb (0.5 μg) bound to glutathione-Sepharose beads is added in 50 μl per well and the solution removed by application of vacuum. […] Add 0.1 μg cdk4/cyclin D1 (insect cell lysate) to initiate assay. Incubate 30 min at 37° C. Terminate reaction by filtration on Millipore Vacuum Manifold. Wash four times with TNEN (20 mM Tris, pH 8.0, 100 mM Na Cl, 1 mM EDTA, 0.5% nonidet P-40). After drying the plates at room temperature, the filter plates were placed in adapter plates (Packard) and 40 μl of Microscint-O® (Packard) was added to each well. Top Seal A film was used to cover the plates before counting in a Top Count Scintillation Counter.

MDA-MB-435 = assay: In vitro tumor cell proliferation, MDA-MB-435; format: cell-based; details: values given with an undefined *, read-out: In vitro Tumor Cell Proliferation (IC50, μM) Breast MDA-MB-435
Method: (§1) The proliferation of tumor cells was measured using a sulforhodamine B assay as described in Skehan, P., et al., J. Natl. Cancer Inst. […] Tumor cells were harvested with trypsin-EDTA, cells that excluded trypan blue were counted, added to 96-well plates and incubated overnight at 37° C. Drug was added to the wells following dilution in culture medium. Three days later, the medium was removed and replenished with medium containing fresh drug and incubated an additional 4 days. The cells were then fixed with 0.1 ml 10% trichloroacetic acid for 60 min at 4° C. The plates were rinsed five times with tap water, air-dried and stained for 30 min with 0.4% sulforhodamine B in 1% acetic acid and air-dried.
(§2) Alternatively, the CyQUANT cell proliferation assay was used to quantitate cell proliferation.
(§3) Alternatively, the CyQUANT cell proliferation assay was used to quantify tumor cell proliferation. Tumor cells were harvested with trypsin-EDTA, cells that excluded trypan blue were counted, added to 96-well plates and incubated overnight at 37° C. Drug was added to the wells following dilution in culture medium. Three days later the medium was removed and the plates frozen at −80° C. for at least 30 minutes.

HT-29 = assay: In vitro tumor cell proliferation, HT-29; format: cell-based, human; details: many values given with an undefined *, read-out: In vitro Tumor Cell Proliferation (IC50, μM) Colon HT-29
Method: as §1, §2, §3
HT-29 is a human colon adenocarcinoma, moderately well-differentiated grade II (HTB 38);

A549 = assay: In vitro tumor cell proliferation, A549; format: cell-based, human; details: many values given with an undefined *, read-out: In vitro Tumor Cell Proliferation (IC50, μM) Lung A549
Method: as §1, §2, §3

Colo-205 = assay: In vitro tumor cell proliferation, Colo-205; format: cell-based; details: values given with an undefined *, read-out: In vitro Tumor Cell Proliferation (IC50, μM) Colon Colo-205
Method: as §1, §2, §3

DMS-114 = assay: In vitro tumor cell proliferation, DMS-114; format: cell-based, human; details: many values given with an undefined *, read-out: In vitro Tumor Cell Proliferation (IC50, μM) Lung DMS-114
Method: DMS-1 14: human small cell lung carcinoma;
as §1, §2, §3

PC-3 = assay: In vitro tumor cell proliferation, PC-3; format: cell-based, human; details: many values given with an undefined *, read-out: In vitro Tumor Cell Proliferation (IC50, μM) Prostate PC-3
Method: as §1, §2, §3

DU145 = assay: In vitro tumor cell proliferation, DU145; format: cell-based, human; details: many values given with an undefined *, read-out: In vitro Tumor Cell Proliferation (IC50, μM) Prostate DU145
Method: as §1, §2, §3

MDA-MB-231 = assay: In vitro tumor cell proliferation, MDA-MB-231; format: cell-based, human; details: sulforhodamine B or CyQUANT assay, many values given with an undefined *, read-out: In vitro Tumor Cell Proliferation (IC50, μM) Breast MDA-MB-231
Method: as §1, §2, §3
MDA-MB-23 1 is a human breast adenocarcinoma, hormone-independent (HTB 26);

[1] = Homo sapiens, MDA-MB-435, MDA-MB-435
[2] = Homo sapiens, COLO 205, Colo-205
[3] = Homo sapiens, MDA-MB-231, MDA-MB-231

T2 sequence (P11802 whole entry): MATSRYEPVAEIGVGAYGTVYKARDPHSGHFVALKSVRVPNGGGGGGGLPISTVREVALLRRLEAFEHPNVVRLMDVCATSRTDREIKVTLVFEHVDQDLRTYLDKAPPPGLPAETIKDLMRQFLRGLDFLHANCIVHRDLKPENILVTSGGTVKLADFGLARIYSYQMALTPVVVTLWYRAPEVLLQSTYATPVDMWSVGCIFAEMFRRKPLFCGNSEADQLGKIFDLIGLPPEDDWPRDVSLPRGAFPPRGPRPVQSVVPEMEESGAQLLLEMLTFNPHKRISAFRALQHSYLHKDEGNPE
T2 sequence (P24385 whole entry partner): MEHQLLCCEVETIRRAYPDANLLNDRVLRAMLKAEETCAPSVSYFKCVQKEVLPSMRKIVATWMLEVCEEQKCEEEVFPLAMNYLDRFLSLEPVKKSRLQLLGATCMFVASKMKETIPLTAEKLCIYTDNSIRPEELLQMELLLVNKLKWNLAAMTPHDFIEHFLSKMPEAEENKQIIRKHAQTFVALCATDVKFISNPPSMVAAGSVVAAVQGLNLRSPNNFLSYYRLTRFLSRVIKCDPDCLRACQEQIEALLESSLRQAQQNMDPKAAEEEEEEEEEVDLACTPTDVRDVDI

## N[C@H]1CC[C@H](Nc2nc(NNc3ccccc3Cl)c3ncn(C4CCCC4)c3n2)CC1 [Example 2, 2-[Trans-(4-aminocyclohexyl)amino]-6-(2-chlorophenylhydrazino)-9-cyclopentylpurine dihydrochloride]
cdk2/cyclin E
  IC50: 0.12 µM and 0.1 µM
cdk4/cyclin D1
  IC50: 1.3 µM and 1 µM
MDA-MB-435; [1]
  IC50: 8 µM
MDA-MB-435; MDA-MB-435, dihydrochloride
  IC50: 8.2 µM
HT-29; HT-29, dihydrochloride
  IC50: 2.5 µM and 4.1 µM
HT-29; Homo sapiens, HT-29, HT-29
  IC50: 2.4 µM
A549; A549, dihydrochloride
  IC50: 2.2 µM and 1.8 µM
A549; Homo sapiens, A549, A549
  IC50: 1.7 µM

## N[C@H]1CC[C@H](Nc2nc(NCC3CCC(CO)CC3)c3ncn(C4CCCC4)c3n2)CC1 (stereo partly drawn) [Example 10, 2-[Trans-(4-aminocyclohexyl)amino]-6-[4-(hydroxymethyl)cyclohexanemethylamino]-9-cyclopentylpurine dihydrochloride]
cdk2/cyclin E
  IC50: 0.016 µM and 0.013 µM
cdk4/cyclin D1
  IC50: 1.6 µM
HT-29; HT-29, dihydrochloride
  IC50: 1.7 µM
HT-29; Homo sapiens, HT-29, HT-29
  IC50: 1.6 µM
Colo-205; Colo-205, dihydrochloride
  IC50: 2.6 µM
Colo-205; [2]
  IC50: 1.3 µM
A549; A549, dihydrochloride
  IC50: 2.6 µM
A549; Homo sapiens, A549, A549
  IC50: 1.3 µM
DMS-114; DMS-114, dihydrochloride
  IC50: 1.4 µM
DMS-114; Homo sapiens, DMS-114, DMS-114
  IC50: 1.5 µM
PC-3; Homo sapiens, PC-3, PC-3
  IC50: 1.1 µM
PC-3; PC-3, dihydrochloride
  IC50: 1 µM
DU145; DU145, dihydrochloride
  IC50: 2.6 µM
DU145; Homo sapiens, DU-145, DU145
  IC50: 1.3 µM

## COc1ccc(CCNc2nc(N[C@H]3CC[C@H](N)CC3)nc3c2ncn3C2CCCC2)cc1 [Example 14, 2-[Trans-(4-aminocyclohexyl)amino]-6-[2-(4-methoxyphenyl)ethylamino]-9-cyclopentylpurine dihydrochloride]
cdk2/cyclin E
  IC50: 0.1 µM
cdk4/cyclin D1
  IC50: 1.5 µM
MDA-MB-231; [3]
  IC50: 3 µM
HT-29; Homo sapiens, HT-29, HT-29
  IC50: 2.7 µM
Colo-205; [2]
  IC50: 2.4 µM
A549; Homo sapiens, A549, A549
  IC50: 1.4 µM
DMS-114; Homo sapiens, DMS-114, DMS-114
  IC50: 1.3 µM
PC-3; Homo sapiens, PC-3, PC-3
  IC50: 2.3 µM
DU145; Homo sapiens, DU-145, DU145
  IC50: 2.8 µM

## COCCOCCCNc1nc(N[C@H]2CC[C@H](N)CC2)nc2c1ncn2C1CCCC1 [Example 15, 2-[Trans-(4-aminocyclohexyl)amino]-6-[3-(2-methoxyethoxy)propylamino]-9-cyclopentylpurine dihydrochloride]
cdk2/cyclin E
  IC50: 0.016 µM
cdk4/cyclin D1
  IC50: 0.04 µM
HT-29; Homo sapiens, HT-29, HT-29
  IC50: 2.1 µM
Colo-205; Colo-205, dihydrochloride
  IC50: 1.7 µM
Colo-205; [2]
  IC50: 1.6 µM
DMS-114; DMS-114, dihydrochloride
  IC50: 1.9 µM
DMS-114; Homo sapiens, DMS-114, DMS-114
  IC50: 1.8 µM
PC-3; Homo sapiens, PC-3, PC-3
  IC50: 1.4 µM
PC-3; PC-3, dihydrochloride
  IC50: 1.2 µM

## COCCNc1nc(N[C@H]2CC[C@H](N)CC2)nc2c1ncn2C1CCCC1 [Example 16, 2-[Trans-(4-aminocyclohexyl)amino]-6-(2-methoxyethylamino)-9-cyclopentylpurine dihydrochloride]
cdk2/cyclin E
  IC50: 0.055 µM and 0.03 µM
cdk4/cyclin D1
  IC50: 0.23 µM and 0.28 µM
MDA-MB-231; [3]
  IC50: 4.7 µM
MDA-MB-231; MDA-MB-231, dihydrochloride
  IC50: 4.1 µM
MDA-MB-435; [1]
  IC50: 9.2 µM
MDA-MB-435; MDA-MB-435, dihydrochloride
  IC50: 7.6 µM
HT-29; HT-29, dihydrochloride
  IC50: 6.3 µM
HT-29; Homo sapiens, HT-29, HT-29
  IC50: 6.4 µM
DMS-114; DMS-114, dihydrochloride
  IC50: 4.4 µM
DMS-114; Homo sapiens, DMS-114, DMS-114
  IC50: 4.8 µM
DU145; DU145, dihydrochloride
  IC50: 3.3 µM
DU145; Homo sapiens, DU-145, DU145
  IC50: 2.5 µM

## CCN(CC)CCCNc1nc(N[C@H]2CC[C@H](N)CC2)nc2c1ncn2C1CCCC1 [Example 18, 2-[Trans-(4-aminocyclohexyl)amino]-6-[(3-diethylamino)propylamino]-9-cyclopentylpurine dihydrochloride]
cdk2/cyclin E
  IC50: 1 µM
cdk4/cyclin D1
  IC50: 1.4 µM

## COc1cccc(CNc2nc(N[C@H]3CC[C@H](N)CC3)nc3c2ncn3C(C)C)c1OC [Example 30, 2-[Trans-(4-aminocyclohexyl)amino]-6-[(2.3-dimethoxybenzyl)amino]-9-(2-propyl)purine dihydrochloride]
cdk2/cyclin E
  IC50: 1.4 µM
cdk4/cyclin D1
  IC50: 2.4 µM

## N[C@H]1CC[C@H](Nc2nc(NCCNc3ccccc3)c3ncn(C4CCCC4)c3n2)CC1 [Example 31, 2-[Trans-(4-aminocyclohexyl)amino]-6-[2-(phenylamino~ethylamino]-9-cyclopentylpurinetrihydrochloride]
cdk2/cyclin E
  IC50: 0.4 µM
cdk4/cyclin D1
  IC50: 0.1 µM
MDA-MB-231; [3]
  IC50: 2.1 µM
MDA-MB-231; MDA-MB-231, trihydrochloride
  IC50: 2.4 µM
MDA-MB-435; [1]
  IC50: 3.1 µM
MDA-MB-435; MDA-MB-435, trihydrochloride
  IC50: 2.6 µM
HT-29; HT-29, trihydrochloride
  IC50: 2.5 µM
HT-29; Homo sapiens, HT-29, HT-29
  IC50: 2.4 µM
A549; A549, trihydrochloride
  IC50: 2.1 µM
A549; Homo sapiens, A549, A549
  IC50: 1.6 µM
DMS-114; DMS-114, trihydrochloride
  IC50: 1.8 µM
DMS-114; Homo sapiens, DMS-114, DMS-114
  IC50: 2.4 µM
PC-3; Homo sapiens, PC-3, PC-3
  IC50: 2.3 µM
PC-3; PC-3, trihydrochloride
  IC50: 1.9 µM
DU145; DU145, trihydrochloride
  IC50: 1.8 µM
DU145; Homo sapiens, DU-145, DU145
  IC50: 1.9 µM
